Assay results as given in US6462037B1, “1,4-benzodiazepin-2-ones useful as HIV reverse transcriptase inhibitors” (Bristol-Myers Squibb Pharma Company, priority 1999, dated 2002).

melting point [°C]	SMILES
181 to 182	C#CCN1CC(=O)Nc2ccc(Cl)cc2C1C(F)(F)F (stereo not shown) [compound 165, 7-Chloro-4-(2-propynyl)-1,5-dihydro-5-(trifluoromethyl)-1,4-benzodiazepin-2-one]
200 to 205	Cc1ccc(CN2CC(=O)Nc3ccc(Cl)cc3C2C(F)(F)F)nc1 (stereo not shown) [compound 104, 7-Chloro-4-(5-methyl-2-pyridylmethyl)-1,5-dihydro-5-(trifluoromethyl)-1,4-benzodiazepin-2-one]
145 to 146	COc1ccc2c(c1)C(C#CC1CC1)(C(F)(F)F)N=CC(=O)N2 (stereo not shown) [compound 198, 7-Methoxy-5-(cyclopropylethynyl)-1,5-dihydro-5-(trifluoromethyl)-1,4-benzodiazepin-2-one]
151 to 153	CC(C)CCC1(C(F)(F)F)N=CC(=O)Nc2ccc(Cl)cc21 (stereo not shown) [compound 189, 7-Chloro-5-(3-methylbutyl)-1,5-dihydro-5-(trifluoromethyl)-1,4-benzodiazepin-2-one]
174 to 176	CC(C)C#CC1(C(F)(F)F)c2c(ccc(F)c2F)NC(=O)CN1O (stereo not shown) [compound 133, 6,7-Difluoro-4-hydroxy-5-(3-methyl-1-butynyl)-1,5-dihydro-5-(trifluoromethyl)-1,4-benzodiazepin-2-one]
208 to 209	O=C1CN(CCc2cccc(Cl)c2)C(C(F)(F)F)c2cc(Cl)ccc2N1 (stereo not shown) [compound 141, 7-Chloro-4-(2-(3-chlorophenyl)ethyl)-1,5-dihydro-5-(trifluoromethyl)-1,4-benzodiazepin-2-one]
161 to 162	O=C1CN(Cc2ccccc2Br)C(C(F)(F)F)c2cc(Cl)ccc2N1 (stereo not shown) [compound 114, 7-Chloro-4-(2-bromobenzyl)-1,5-dihydro-5-(trifluoromethyl)-1,4-benzodiazepin-2-one]
121 to 123	CCCCC1(C(F)(F)F)N=CC(=O)Nc2ccc(Cl)cc21 (stereo not shown) [compound 128, 7-Chloro-5-butyl-1,5-dihydro-5-(trifluoromethyl)-1,4-benzodiazepin-2-one]
105 to 108	O=C1C=NC(CC2CC2)(C(F)(F)F)c2cc(Cl)ccc2N1 (stereo not shown) [compound 196, 7-Chloro-5-(cyclopropylmethyl)-1,5-dihydro-5-(trifluoromethyl)-1,4-benzodiazepin-2-one]
104 to 105	O=C1C=N[C@](C#CC2CC2)(C(F)(F)F)c2cc(Cl)ccc2N1 [compound 174, 7-Chloro-5(S)-(cyclopropylethynyl)-1,5-dihydro-5-(trifluoromethyl)-1,4-benzodiazepin-2-one]
184 to 185	N#Cc1ccccc1CN1CC(=O)Nc2ccc(Cl)cc2C1C(F)(F)F (stereo not shown) [compound 116, 7-Chloro-4-(2-cyanobenzyl)-1,5-dihydro-5-(trifluoromethyl)-1,4-benzodiazepin-2-one]
170 to 171	COc1ccc(F)c(F)c1CN1CC(=O)Nc2ccc(Cl)cc2C1C(F)(F)F (stereo not shown) [compound 157, 7-Chloro-4-(2,3-difluoro-6-methoxybenzyl)-1,5-dihydro-5-(trifluoromethyl)-1,4-benzodiazepin-2-one]
196 to 198	O=C1C=NC(C#Cc2cccs2)(C(F)(F)F)c2cc(Cl)ccc2N1 (stereo not shown) [compound 135, 7-Chloro-5-(2-thienylethynyl)-1,5-dihydro-5-(trifluoromethyl)-1,4-benzodiazepin-2-one]
139 to 140	CCCCCC1(C(F)(F)F)N=C(C)C(=O)Nc2ccccc21 (stereo not shown) [compound 181, 3-Methyl-5-pentyl-1,5-dihydro-5-(trifluoromethyl)-1,4-benzodiazepin-2-one]
158 to 160	O=C1C=NC(/C=C\C2CC2)(C(F)(F)F)c2cc(F)ccc2N1 (stereo not shown) [compound 200, 7-Fluoro-5-(2-cyclopropyl-Z-ethenyl)-1,5-dihydro-5-(trifluoromethyl)-1,4-benzodiazepin-2-one]
123 to 124	CCCN1CC(=O)Nc2ccc(Cl)cc2C1C(F)(F)F (stereo not shown) [compound 106, 7-Chloro-4-propyl-1,5-dihydro-5-(trifluoromethyl)-1,4-benzodiazepin-2-one]
89 to 92	CCCCN1CC(=O)Nc2ccc(Cl)cc2C1C(F)(F)F (stereo not shown) [compound 100, 7-Chloro-4-butyl-1,5-dihydro-5-(trifluoromethyl)-1,4-benzodiazepin-2-one]
83 to 84	CCC=CCN1CC(=O)Nc2ccc(Cl)cc2C1C(F)(F)F (stereo not shown) [compound 153, 7-Chloro-4-(2-penten-1-yl)-1,5-dihydro-5-(trifluoromethyl)-1,4-benzodiazepin-2-one]
153 to 155	CCCCCC1(C(F)(F)F)N=CC(=O)Nc2ccc(Cl)cc21 (stereo not shown) [compound 187, 7-Chloro-5-pentyl-1,5-dihydro-5-(trifluoromethyl)-1,4-benzodiazepin-2-one]
173 to 174	O=C1CN(Cc2cc(Br)cs2)C(C(F)(F)F)c2cc(Cl)ccc2N1 (stereo not shown) [compound 150, 7-Chloro-4-(4-bromothien-2-ylmethyl)-1,5-dihydro-5-(trifluoromethyl)-1,4-benzodiazepin-2-one]

melting point [°C]	SMILES
87 to 88	CCCCCCN1CC(=O)Nc2ccc(Cl)cc2C1C(F)(F)F (stereo not shown) [compound 107, 7-Chloro-4-hexyl-1,5-dihydro-5-(trifluoromethyl)-1,4-benzodiazepin-2-one]
94 to 95	CCCCCC1(C(F)(F)F)N=C(CC(C)C)C(=O)Nc2ccc(Cl)cc21 (stereo not shown) [compound 176, 7-Chloro-3-(2-methylpropyl)-5-pentyl-1,5-dihydro-5-(trifluoromethyl)-1,4-benzodiazepin-2-one]
161 to 162	O=C1CN(CCc2ccccc2Cl)C(C(F)(F)F)c2cc(Cl)ccc2N1 (stereo not shown) [compound 138, 7-Chloro-4-(2-(2-chlorophenyl)ethyl)-1,5-dihydro-5-(trifluoromethyl)-1,4-benzodiazepin-2-one]
107 to 108	COc1cccc(F)c1CN1CC(=O)Nc2ccc(Cl)cc2C1C(F)(F)F (stereo not shown) [compound 146, 7-Chloro-4-(2-methoxy-6-fluorobenzyl)-1,5-dihydro-5-(trifluoromethyl)-1,4-benzodiazepin-2-one]
118 to 119	CC(C)CC1(C(F)(F)F)N=CC(=O)Nc2ccc(Cl)cc21 (stereo not shown) [compound 169, 7-Chloro-5-(2-methylpropyl)-1,5-dihydro-5-(trifluoromethyl)-1,4-benzodiazepin-2-one]
156 to 157	COc1cccc(F)c1CN1CC(=O)Nc2ccc(Cl)cc2C1C(F)(F)F (stereo not shown) [compound 158, 7-Chloro-4-(2-fluoro-6-methoxybenzyl)-1,5-dihydro-5-(trifluoromethyl)-1,4-benzodiazepin-2-one]
196 to 220	Cc1ncc(CN2CC(=O)Nc3ccc(Cl)cc3C2C(F)(F)F)s1 (stereo not shown) [compound 103, 7-Chloro-4-(2-methyl-5-thiazolylmethyl)-1,5-dihydro-5-(trifluoromethyl)-1,4-benzodiazepin-2-one]
142 to 143	CCCCCC1(C(F)(F)F)N=CC(=O)Nc2ccc(Cl)cc21 (stereo not shown) [compound 179, 7-Chloro-5-pentyl-1,5-dihydro-5-(trifluoromethyl)-1,4-benzodiazepin-2-one]
152 to 155	O=C1C=NC(CCC2CC2)(C(F)(F)F)c2cc(Cl)ccc2N1 (stereo not shown) [compound 193, 7-Chloro-5-(2-cyclopropylethyl)-1,5-dihydro-5-(trifluoromethyl)-1,4-benzodiazepin-2-one]
121 to 122	COc1ccc(OC)c(CN2CC(=O)Nc3ccc(Cl)cc3C2C(F)(F)F)c1F (stereo not shown) [compound 145, 7-Chloro-4-(2,5-dimethoxy-6-fluorobenzyl)-1,5-dihydro-5-(trifluoromethyl)-1,4-benzodiazepin-2-one]
86 to 87	C=CCCCN1CC(=O)Nc2ccc(Cl)cc2C1C(F)(F)F (stereo not shown) [compound 152, 7-Chloro-4-(4-penten-1-yl)-1,5-dihydro-5-(trifluoromethyl)-1,4-benzodiazepin-2-one]
185 to 187	O=C1C=NC(C#CC2CC2)(C(F)(F)F)c2c(ccc(F)c2F)N1 (stereo not shown) [compound 195, 6,7-Difluoro-5-(2-cyclopropylethynyl)-1,5-dihydro-5-(trifluoromethyl)-1,4-benzodiazepin-2-one]
94 to 96	CCCCCN1CC(=O)Nc2ccc(Cl)cc2C1C(F)(F)F (stereo not shown) [compound 111, 7-Chloro-4-pentyl-1,5-dihydro-5-(trifluoromethyl)-1,4-benzodiazepin-2-one]
148 to 150	O=C1CN(Cc2ccsc2)C(C(F)(F)F)c2cc(Cl)ccc2N1 (stereo not shown) [compound 123, 7-Chloro-4-(3-thienylmethyl)-1,5-dihydro-5-(trifluoromethyl)-1,4-benzodiazepin-2-one]
170 to 171	O=C1CN(Cc2ccccc2F)C(C(F)(F)F)c2cc(Cl)ccc2N1 (stereo not shown) [compound 137, 7-Chloro-4-(2-fluorobenzyl)-1,5-dihydro-5-(trifluoromethyl)-1,4-benzodiazepin-2-one]
185 to 187	CC(C)C#CC1(C(F)(F)F)N=CC(=O)Nc2ccc(Cl)cc21 (stereo not shown) [compound 134, 7-Chloro-5-(3-methyl-1-butynyl)-1,5-dihydro-5-(trifluoromethyl)-1,4-benzodiazepin-2-one]
181 to 182	O=C1CN(Cc2cccc(F)c2)C(C(F)(F)F)c2cc(Cl)ccc2N1 (stereo not shown) [compound 142, 7-Chloro-4-(3-fluorobenzyl)-1,5-dihydro-5-(trifluoromethyl)-1,4-benzodiazepin-2-one]
137 to 140	O=C1C=NC(Cc2ccccn2)(C(F)(F)F)c2cc(Cl)ccc2N1 (stereo not shown) [compound 202, 7-Chloro-5-(2-pyridylmethyl)-1,5-dihydro-5-(trifluoromethyl)-1,4-benzodiazepin-2-one]
182 to 183	O=C1CN(Cc2cccc(F)c2F)C(C(F)(F)F)c2cc(Cl)ccc2N1 (stereo not shown) [compound 147, 7-Chloro-4-(2,3-difluorobenzyl)-1,5-dihydro-5-(trifluoromethyl)-1,4-benzodiazepin-2-one]
160 to 161	O=C1C=NC(Cc2ccccc2)(C(F)(F)F)c2cc(Cl)ccc2N1 (stereo not shown) [compound 168, 7-Chloro-5-benzyl-1,5-dihydro-5-(trifluoromethyl)-1,4-benzodiazepin-2-one]
